Consider one compound from patent publication US6750256B1, “Use of aromatic aldehydes as insecticides” (Proguard, Inc., priority 1994, dated 2004).

The structures appear in SMILES notation.

Series [1] deals with Adult male cockroaches (Dictyoptera; Blattelidae). In words: German cockroach topical application bioassay. The format is in vivo, German cockroaches. The note with it: 2% (20,000 ppm) in aqueous vehicle (2% Tween 80, 6% NaHCO3); 5 ml spray; within five minutes. The method, then: Adult male cockroaches (Dictyoptera; Blattelidae) were used to evaluate insecticidal activity of cinnamic aldehyde and/or coniferyl aldehyde by a topical application method.
Twenty cockroaches were placed in stainless steel pails (20 liter) with lids. After one week provisioned with food, water and harborage, they were sprayed with 5 ml of a test formulation at arm's length (approximately 1 meter) using a Gilmour spray bottle. The number of dead or moribund cockroaches at 5 minutes, 30 minutes, 1 hour and 12 hours after treatment was counted and compared to those untreated (diluent only). Raid (active ingredients: permethrin, pyrethrins and PBO) was used as a positive control. Within five minutes, all cockroaches treated with 2% cinnamic aldehyde (20,000 ppm) in aqueous vehicle (2% Tween 80, 6% NaHCO3) were dead, as were all those treated with Raid. Ten percent of those treated with vehicle alone were dead in 30 minutes, with no further increase in mortality up to 12 hours.

For series [2], the system named is adult carpenter ants (Camponotus pennsylvanicus). As to the kind of experiment: Carpenter ant spray test. The format is in vivo. The method, then:
The effect of cinnamic aldehyde on adult carpenter ants (Camponotus pennsylvanicus) was evaluated as follows. Twenty adult ants were placed in a 20 liter stainless steel pail with lid. The test formulations were prepared and used within one hour and were shaken immediately before spraying the insects. 8 ml of test solution was sprayed with a fine spray (Gilmour hand sprayer). […] Cinnamic aldehyde (2%, 20,000 ppm) in 2% Tween 80 and 6% NaHCO3 in water gave 100% mortality at all time points. Vehicle in 2% Tween 80 and 6% NaHCO3. Raid (active ingredients: permethrin, pyrethrins and PBO) was used as a positive control and gave 90% mortality at 0.5 hr with 100% mortality at all other time points.

The subject of series [3] is larvae of Culex quinquefasciatus mosquito. In words: Mosquito larvicidal bioassay. The format is in vivo. Here is the method:
Larvicidal activity of test formulations at varying concentrations was tested in a double blind bioassay on larvae of Culex quinquefasciatus mosquito. Twenty-five late 3rd-instar larvae of Culex quinquefasciatus were placed in 100×80 mm Purex #3250 glass containers. 250 ml distilled H2O was pipetted into the containers. One ml of test formulation containing 10 to 25,000 ppm cinnamic aldehyde in vehicle (2% by volume Tween 80 and 6% sodium bicarbonate in distilled H2O) was pipetted into each container. A control blank using 1 ml distilled H2O instead of a test formulation was also prepared.
All treated and untreated glass containers were placed in temperature controlled room at 29° C. Each container was evaluated for larvae mortality at 24 hour intervals. The number of dead larvae were reported. See Table 5 for results of the bioassay. Concentrations above 5,000 ppm cinnamic aldehyde gave 90% mortality at 24 and 48 hours.

Series [4] has as its system melon aphid (Aphis gossypii Glover). As to the kind of experiment: Melon aphid plant foliar bioassay on flowering chrysanthemums. The class given is in vivo. The note with it: each concentration (1,000, 3,000, 10,000 ppm); after 36 hours; pre-count mean of about 60. Here is the method: Treatment of melon aphid (Aphis gossypii Glover) is conducted as follows. Plants were grown in […] pots in planting soil in greenhouse. Chrysantemums (c. morifolum) were used for melon aphid plant foliar bioassays.
Flowering plants were infested and pre-count population size for each plant were taken and number of mean of aphids nymphs per leaf calculated. The plants were sprayed to runoff (about 5 ml) with an aqueous formulation containing 1,000 ppm, 3,000 ppm, and 10,000 ppm concentration of cinnamic aldehyde, and a negative control containing only H2O. After 36 hours, the number of insects on the leaves sprayed with a given test formulation was determined and compared with that of insects on leaves sprayed with negative control only. Mean aphid nymphs per leaf were determined to be less than 10 for each cinnamic aldehyde concentration compared to a pre-count mean of about 60.

Where [5] appears, read: 1 ml of 100 ppm formulation in 250 ml H2O.
The mark [6] stands for this setting: 1 ml of 2,500 ppm formulation in 250 ml H2O.
Where [7] appears, read: 1 ml of 5,000 ppm formulation in 250 ml H2O.
Setting [8] is: 1 ml of 12,500 ppm formulation in 250 ml H2O.
[9] abbreviates: 1 ml of 25,000 ppm formulation in 250 ml H2O.

What is called mortality is the share of the test organisms that died. Turning to `O=C/C=C/c1ccccc1` [CNMA, cinnamic aldehyde], the cockroaches dead entry in series [1] is on record as “all”. Also, the mortality at 20000 ppm in series [2] came to 100%. The “Percent Mortality (time) 24 hours” value is on record as 0% in series [3] (1 ml of 10 ppm formulation (2% Tween 80, 6% sodium bicarbonate) in 250 ml H2O); 2% in series [3] (setting [5]); 4% in series [3] (setting [6]); 8% in series [3] (setting [7]); 90% in series [3] (setting [8]); 100% in series [3] (setting [9]). For the same compound, the “Percent Mortality (time) 48 hours” value was determined as 0% in series [3] (1 ml of 10 ppm formulation in 250 ml H2O); 2% in series [3] (setting [5]); 4% in series [3] (setting [6]); 20% in series [3] (setting [7]); 90% in series [3] (setting [8]); 100% in series [3] (setting [9]). Moreover, in series [3] (concentrations above 5,000 ppm, at 24 and 48 hours), the mortality was 90%. The “Mean aphid nymphs per leaf” value in series [4] is reported as “less than 10”.
